Results taken from patent US20060069132A1, “Azolecarboxamide herbicides” (priority 2004, published 2006).

Key:
Test in all cases: Test C postemergence herbicide test
winter barley = format: in vivo, Hordeum vulgare; settings: for Barley, Winter plant response rating: 500 g ai/ha
Method in brief: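 Greenhouse test with a 12–14 day hold after application and visual comparison with controls. Emerged plants were 1- to 4-leaf stage (2–18 cm) when sprayed postemergence, and the paddy barnyardgrass was at 2 leaves under flooded conditions. 100 = complete control.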

blackgrass = format: in vivo, Alopecurus myosuroides; settings: for Blackgrass plant response rating: 500 g ai/ha
Method in brief: (§1)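 Injury scored visually against controls on a 0 (no effect) to 100 (complete control) scale, 12 to 14 days after treatment in greenhouse. Flooded paddy plants treated at 2-leaf stage; postemergence plants at 1- to 4-leaf stage, 2 to 18 cm tall.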

canarygrass = format: in vivo, Phalaris minor
Method in brief: as §1

downy bromegrass = format: in vivo, Bromus tectorum
Method in brief: as §1

green foxtail = format: in vivo, Setaria viridis
Method in brief: as §1

Italian ryegrass = format: in vivo, Lolium multiflorum
Method in brief: as §1

wheat = format: in vivo, Triticum aestivum
Method in brief: as §1

wild oat = format: in vivo, Avenafatua
Method in brief: as §1

windgrass = format: in vivo, Apera spica-venti
Method in brief: as §1

[1] = Postemergence, 250 g ai/ha, scale 0 to 100, 0 no effect, 100 complete control
[2] = postemergence, 125 g ai/ha, scale 0 to 100 (0 no effect, 100 complete control)
[3] = postemergence, 62 g ai/ha, scale 0 to 100 (0 no effect, 100 complete control)
[4] = postemergence, 125 g ai/ha, scale 0 to 100
[5] = postemergence, 62 g ai/ha, scale 0 to 100
[6] = Postemergence, 500 g ai/ha, scale 0 to 100, 0 no effect, 100 complete control
[7] = postemergence, 31 g ai/ha, scale 0 to 100

SMILES	Plant response rating, Barley, Winter (winter barley; [1])	Plant response rating, Barley, Winter (winter barley; [2])	Plant response rating, Barley, Winter (winter barley; [3])	Plant response rating, Blackgrass (blackgrass; [1])	Plant response rating, Blackgrass (blackgrass; [4])	Plant response rating, Blackgrass (blackgrass; [5])	Plant response rating, Canarygrass (canarygrass; [1])	Plant response rating, Canarygrass (canarygrass; [4])	Plant response rating, Canarygrass (canarygrass; [5])	Plant response rating, Bromegrass, Downy (downy bromegrass; [1])	Plant response rating, Bromegrass, Downy (downy bromegrass; [4])	Plant response rating, Bromegrass, Downy (downy bromegrass; [5])	Plant response rating, Foxtail, Green (green foxtail; [1])	Plant response rating, Foxtail, Green (green foxtail; [4])	Plant response rating, Foxtail, Green (green foxtail; [5])	Plant response rating, Ryegrass, Italian (Italian ryegrass; [4])	Plant response rating, Ryegrass, Italian (Italian ryegrass; [5])	Plant response rating, Wheat (wheat; [4])	Plant response rating, Wheat (wheat; [5])	Plant response rating, Oat, Wild (wild oat; [4])	other results
C#CCOc1cccc(NC(=O)c2cc(C(C)(C)C)nn2CC)c1 [Compound 411]	35	35	30	65	65	50	65	60	60	45	40	40	65	65	60	60	45	35	35	60	Barley, Winter plant response rating (winter barley; Postemergence, scale 0 to 100): 40; Blackgrass plant response rating (blackgrass; Postemergence, scale 0 to 100): 70; Plant response rating, Canarygrass (canarygrass; [6]): 65; Plant response rating, Bromegrass, Downy (downy bromegrass; [6]): 45; Plant response rating, Foxtail, Green (green foxtail; [6]): 70; Plant response rating, Ryegrass, Italian (Italian ryegrass; [6]): 65; Plant response rating, Wheat (wheat; [6]): 55; Plant response rating, Oat, Wild (wild oat; [6]): 65; Plant response rating, Oat, Wild (wild oat; [5]): 60; Plant response rating, Windgrass (windgrass; [6]): 65; Plant response rating, Windgrass (windgrass; [4]): 55; Plant response rating, Windgrass (windgrass; [5]): 40
C=CCOc1cccc(NC(=O)c2cc(C(C)(C)C)nn2CC)c1 [Compound 412]	40	35	30	65	45	45	60	45	45	55	45	40	65	60	45	45	40	35	35	65	Barley, Winter plant response rating (winter barley; Postemergence, scale 0 to 100): 50; Blackgrass plant response rating (blackgrass; Postemergence, scale 0 to 100): 65; Plant response rating, Canarygrass (canarygrass; [6]): 60; Plant response rating, Bromegrass, Downy (downy bromegrass; [6]): 60; Plant response rating, Foxtail, Green (green foxtail; [6]): 65; Plant response rating, Ryegrass, Italian (Italian ryegrass; [6]): 60; Plant response rating, Wheat (wheat; [6]): 50; Plant response rating, Oat, Wild (wild oat; [6]): 70; Plant response rating, Oat, Wild (wild oat; [5]): 60; Plant response rating, Windgrass (windgrass; [6]): 65; Plant response rating, Windgrass (windgrass; [4]): 45; Plant response rating, Windgrass (windgrass; [5]): 40
CCc1nn(C(C)(C)C)nc1C(=O)Nc1cccc(C(=O)NC2CC2)c1 [Compound 417]	30	20	20	60	50	35	45	40	30	50	40	35	60	55	50	40	35	20	20	40	Barley, Winter plant response rating (winter barley; Postemergence, scale 0 to 100): 35; Blackgrass plant response rating (blackgrass; Postemergence, scale 0 to 100): 60; Plant response rating, Canarygrass (canarygrass; [6]): 55; Plant response rating, Bromegrass, Downy (downy bromegrass; [6]): 65; Plant response rating, Foxtail, Green (green foxtail; [6]): 65; Plant response rating, Ryegrass, Italian (Italian ryegrass; [6]): 60; Plant response rating, Wheat (wheat; [6]): 35; Plant response rating, Oat, Wild (wild oat; [6]): 60; Plant response rating, Oat, Wild (wild oat; [5]): 35; Plant response rating, Windgrass (windgrass; [6]): 55; Plant response rating, Windgrass (windgrass; [4]): 40; Plant response rating, Windgrass (windgrass; [5]): 40
C#CCNC(=O)c1cccc(NC(=O)c2nn(C(C)(C)C)nc2CC)c1 [Compound 380]	30	20	20	55	45	40	45	40	40	65	60	55	60	60	60	50	45	25	20	60	Plant response rating, Barley, Winter (winter barley; [7]): 10; Plant response rating, Blackgrass (blackgrass; [7]): 40; Plant response rating, Canarygrass (canarygrass; [7]): 30; Plant response rating, Bromegrass, Downy (downy bromegrass; [7]): 45; Plant response rating, Oat, Wild (wild oat; [5]): 55; Plant response rating, Windgrass (windgrass; [4]): 60; Plant response rating, Windgrass (windgrass; [5]): 45
